Data as given in the supplement of paper PMC11451515.

Test system: P12-Ichikawa
Assay: cell viability relative to DMSO control; higher = less cytotoxic
Details: 48 h
Outline: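 Leukemia cells (NOMO1 or SEM, 500 cells/well; P12-Ichikawa, 1000 cells/well) were seeded in 5 μl in 1536-well plates after at least four passages of adaptation to each medium. They received library compounds in DMSO by pin dosing, 11 threefold points from 47 μM to 0.79 nM. Luminescence with CellTiter-Glo One was read after 48 h at 37°C. Viability is stated per plate relative to DMSO wells, with cell-free wells as background.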

[1] = HPLM + 10% dialyzed FBS, 0.000781 µM
[2] = HPLM + 10% dialyzed FBS, 0.00234 µM
[3] = HPLM + 10% dialyzed FBS, 0.00702 µM
[4] = HPLM + 10% dialyzed FBS, 0.0211 µM
[5] = HPLM + 10% dialyzed FBS, 0.0632 µM
[6] = HPLM + 10% dialyzed FBS, 0.19 µM
[7] = HPLM + 10% dialyzed FBS, 0.569 µM
[8] = HPLM + 10% dialyzed FBS, 1.71 µM
[9] = HPLM + 10% dialyzed FBS, 5.12 µM
[10] = HPLM + 10% dialyzed FBS, 15.4 µM
[11] = HPLM + 10% dialyzed FBS, 46.1 µM
[12] = RPMI 5 mM glucose + 10% FBS, 0.000781 µM
[13] = RPMI 5 mM glucose + 10% FBS, 0.00234 µM
[14] = RPMI 5 mM glucose + 10% FBS, 0.00702 µM
[15] = RPMI 5 mM glucose + 10% FBS, 0.0211 µM
[16] = RPMI 5 mM glucose + 10% FBS, 0.0632 µM
[17] = RPMI 5 mM glucose + 10% FBS, 0.19 µM
[18] = RPMI 5 mM glucose + 10% FBS, 0.569 µM
[19] = RPMI 5 mM glucose + 10% FBS, 1.71 µM
[20] = RPMI 5 mM glucose + 10% FBS, 5.12 µM
[21] = RPMI 5 mM glucose + 10% FBS, 15.4 µM
[22] = RPMI 5 mM glucose + 10% FBS, 46.1 µM
[23] = RPMI 5 mM glucose + 10% dialyzed FBS, 0.000781 µM
[24] = RPMI 5 mM glucose + 10% dialyzed FBS, 0.00234 µM
[25] = RPMI 5 mM glucose + 10% dialyzed FBS, 0.00702 µM
[26] = RPMI 5 mM glucose + 10% dialyzed FBS, 0.0211 µM
[27] = RPMI 5 mM glucose + 10% dialyzed FBS, 0.0632 µM
[28] = RPMI 5 mM glucose + 10% dialyzed FBS, 0.19 µM
[29] = RPMI 5 mM glucose + 10% dialyzed FBS, 0.569 µM
[30] = RPMI 5 mM glucose + 10% dialyzed FBS, 1.71 µM
[31] = RPMI 5 mM glucose + 10% dialyzed FBS, 5.12 µM
[32] = RPMI 5 mM glucose + 10% dialyzed FBS, 15.4 µM
[33] = RPMI 5 mM glucose + 10% dialyzed FBS, 46.1 µM

Row | SMILES | cell viability [1] | cell viability [2] | cell viability [3] | cell viability [4] | cell viability [5] | cell viability [6] | cell viability [7] | cell viability [8] | cell viability [9] | cell viability [10] | cell viability [11] | cell viability [12] | cell viability [13] | cell viability [14] | cell viability [15] | cell viability [16] | cell viability [17] | cell viability [18] | cell viability [19] | cell viability [20] | cell viability [21] | cell viability [22] | cell viability [23] | cell viability [24] | cell viability [25] | cell viability [26] | cell viability [27] | cell viability [28] | cell viability [29] | cell viability [30] | cell viability [31] | cell viability [32] | cell viability [33]
1 | C[S+](=O)([O-])c1ccc(-c2cnc(N)c(C(=O)Nc3ccccc3)n2)cc1 | 99.6% | 104% | 107% | 107% | 117% | 119% | 118% | 118% | 114% | 88.4% | 87.2% | 103% | 119% | 111% | 112% | 123% | 122% | 116% | 121% | 114% | 76.9% | 80.5% | 104% | 117% | 120% | 120% | 121% | 115% | 124% | 114% | 117% | 72.6% | 69.7%
2 | CN(C)c1nc(Cc2ccc(NC(=O)c3ccc4ccccc4c3)cc2)nc(Cl)c1CC(=O)O | 112% | 112% | 101% | 101% | 108% | 124% | 104% | 99.4% | 84.8% | 84.8% | 69.3% | 117% | 107% | 124% | 115% | 117% | 114% | 107% | 98.7% | 87.2% | 69.8% | 73.6% | 106% | 113% | 113% | 111% | 106% | 107% | 105% | 104% | 84% | 68.7% | 61.5%
3 | Cc1ccc([S+](=O)([O-])Nc2nc3ccccc3nc2Nc2ccc3nsnc3c2)cc1 | 105% | 110% | 111% | 110% | 115% | 116% | 109% | 112% | 106% | 36.3% | 13.3% | 93.4% | 114% | 104% | 116% | 103% | 113% | 110% | 103% | 77.5% | 28.5% | 12.4% | 92% | 107% | 112% | 116% | 112% | 104% | 101% | 112% | 92.1% | 74.1% | 30.4%
4 | O=C(O)/C=C/c1ccc(O)c(O)c1 | 118% | 113% | 105% | 112% | 110% | 103% | 107% | 99.2% | 105% | 88.3% | 18.3% | 106% | 111% | 111% | 112% | 108% | 106% | 113% | 117% | 105% | 93.4% | 6.72% | 100% | 120% | 105% | 116% | 117% | 110% | 115% | 103% | 99.7% | 88.7% | 7.01%
5 | COC[C@H](c1ccc(C(F)(F)F)cc1)N1CCN(C2(C)CCN(C(=O)c3c(C)ncnc3C)CC2)C[C@H]1C.O=C(O)/C=C\C(=O)O | 92% | 100% | 107% | 111% | 107% | 110% | 113% | 117% | 106% | 103% | 98.5% | 101% | 123% | 109% | 110% | 106% | 121% | 109% | 104% | 105% | 99.8% | 99.3% | 90.1% | 108% | 99.7% | 110% | 103% | 111% | 117% | 110% | 102% | 95.2% | 92.1%
6 | Cc1cnc(C(=O)O)c[n+]1[O-] | 115% | 120% | 112% | 115% | 112% | 116% | 114% | 119% | 111% | 107% | 105% | 122% | 128% | 124% | 126% | 120% | 127% | 125% | 127% | 116% | 119% | 100% | 121% | 130% | 123% | 111% | 117% | 123% | 120% | 108% | 115% | 109% | 102%
7 | Nc1cc(C(F)(F)F)c(-c2cc(N3CCOCC3)nc(N3CCOCC3)n2)cn1 | – | – | – | – | – | – | – | – | – | – | – | 111% | 124% | 135% | 137% | 133% | 126% | 94.8% | 67.2% | 15.7% | 13.2% | 7.95% | – | – | – | – | – | – | – | – | – | – | –
